US20240150691A1, “BILE DUCT CHIP AND USE THEREOF” (Kyoto University, priority 2021, published 2024)

Columns and labels:
[1] = Drug absorption in microfluidic device without PHH (LC-MS/MS); type: physicochemical; conditions: for Drug absorption rate: Microfluidic device/Polystyrene plate; for Drug absorption rate / concentration as % of initial concentration: without PHH; for concentration during the observation period: 1 to 4 hours, microfluidic device; for concentration as % of initial concentration: 1 hour after the injection into the microfluidic device; for absorption in the microfluidic device: PDMS device without PHH
Description: (§1) A culture medium containing MDZ, DIC, PHE, BUF, or MPHT was added to a microfluidic device or a polystyrene plate. Subsequently, 1, 2, and 4 hours after the addition of the drugs, the amounts of these drugs were quantified with LC-MS/MS.
as §1, with “APAP (a CYP1A2 metabolite), 1OH-MDZ (a CYP3A4 metabolite), 4OH-DIC (a CYP2C9 metabolite), 4OH-MPHT (a CYP2C19 metabolite),” for “MDZ, DIC, PHE, BUF,”, “1OH-BUF (a CYP2D6 metabolite)” for “MPHT”
Subsequently, it was examined whether the absorption of the drugs and metabolites could be predicted by the relative physicochemical characteristics between the microfluidic device and the polystyrene plate. The drug absorption rate between the microfluidic device and the polystyrene plate was calculated. Subsequently, a correlation coefficient R^2 value between the drug absorption rate and the physicochemical characteristics (DiffCoef, M Log P, S+Log P, S+log D, MWt, and tPSA) of the drugs was calculated.

[2] = molecular target: T1, MRP2 (Homo sapiens, UniProt Q92887); assay: CDFDA transport assay; type: cell-based; conditions: 10 μM CDFDA in upper layer flow path, 3 hours, co-culturing with HuCCT1 cells versus PHH only
T1 construct: endogenous in cells; host or cells: primary human hepatocytes (PHH), alone or co-cultured with HuCCT1 cells, in the microfluidic device
Description: 10 μM of 5(6)-carboxy-2′,7′-dichlorofluorescein diacetate (CDFDA) was added to the upper layer flow path. After 3 hours, the culture supernatant from the lower layer flow path was recovered. The fluorescence intensity of 5(6)-carboxy-2′,7′-dichlorofluorescein (CDF) in the recovered culture supernatant, which is a metabolite of CDFDA, was measured.
Subsequently, 5(6)-carboxy-2′,7′-dichlorofluorescein diacetate (CDFDA) was added to the upper layer flow path of the intrahepatic bile duct chip, and after 3 hours, the fluorescence of the culture medium in the lower layer flow path was measured. In living cells, CDFDA is hydrolyzed to 5(6)-carboxy-2′,7′-dichlorofluorescein (CDF). CDF is a substrate of MRP2, which is a transporter. Therefore, the CDF transported to the lower layer flow path can be quantified by measuring the fluorescence intensity.
FIG. 13 is a graph showing results of measuring the fluorescence intensity.

[3] = system: PHH; assay: Fibrosis marker gene expression in PHH treated with TGF-β1 (quantitative RT-PCR); type: cell-based, human
Description: (§2) Subsequently, the cellular response of the PHH cultured in the microfluidic device and the polystyrene plate to a recombinant protein was examined. Specifically, PHH was treated with transforming growth factor-β1 (TGF-β1), which is one of the causative factors of hepatic fibrosis. The PHH was exposed to 100 ng/mL TGF-β1 for 48 hours. Subsequently, the amount of TGF-β1 in the cell culture supernatant was measured according to ELISA.
Subsequently, the gene expression levels of ACTA2, COL1A1, and TIMP1, which are fibrosis markers, were measured by quantitative RT-PCR.
In FIG. 36, the vertical axis indicates a relative value in a case where the gene expression level in the cells (control) treated with phosphate buffered saline (PBS) is set to 1. […] The data is indicated as average value±standard deviation (n=3).
Subsequently, the gene expression level of TGF-β type II receptor (TGFBR2) was measured. […] Subsequently, the gene expression level of TGFBR2 was measured by quantitative RT-PCR.

[4] = Measurement of active TGF-β1 in culture supernatant (ELISA), adsorption to culture vessel; conditions: 100 ng/mL TGF-β1, 48 hours
Description: PHH was treated with 100 ng/mL of TGF-β1 for 48 hours. In order to quantify active TGF-β1 in the supernatant, the culture medium was recovered and analyzed according to the instruction manual using a TGF beta-1 Human ELISA Kit (BMS249-4, Thermo Fisher Scientific, Inc.). The amount of active TGF-β1 was calculated based on each standard.
as §2
FIG. 35 is a graph showing the results of ELISA. In FIG. 35, “top” indicates the results for the upper layer flow path, and “bottom” indicates the results for the lower layer flow path.

[5] = system: CYP3A; type: in vitro ADME, human
Description: The supernatant was recovered 1, 2, and 4 hours after the treatment with the substrate. At the time of recovering the supernatant, an equal volume of a culture medium containing the substrate was added.
A fraction (20 μL) of the recovered supernatant was mixed with 20 μL of Milli-Q water and 120 μL of acetonitrile containing […] 10 nM of an internal standard (fluvastatin, FUJIFILM Wako Pure Chemical Corporation). After centrifugation, 100 μL of the supernatant was analyzed by LC-MS/MS.
Chromatography was carried out using a Nexera X2 LC system (Shimadzu Corporation), and quantification was carried out using QTRAP 5500+ (AB Sciex LLC).
A mass spectrometer was set to an MRM mode and operated with an electrospray ionization source.

[6] = system: PHH and the HuCCT1 cells of the intrahepatic bile duct chip; assay: Response to bile acid signaling in intrahepatic bile duct chip (quantitative RT-PCR); type: cell-based, human; conditions: 100 μM CDCA, 72 hours, versus DMSO
Description: In addition, the response to bile acid signaling in PHH was examined. Chenodeoxycholic acid (CDCA) is one of the major bile acids. […] In addition, a specimen treated with dimethyl sulfoxide (DMSO) instead of CDCA was also prepared for comparison. Subsequently, the gene expression levels of BSEP, NTCP, and CYP7A1 were measured according to quantitative RT-PCR. […] In FIG. 9, the vertical axis indicates a relative value of the expression level of each gene in a case where the expression level in a case where DMSO has been treated is set to 1. […] All data are indicated as average value±standard deviation (n=3).

[7] = system: FXR; assay: Change in bile acid signaling upon drug exposure in PHH (quantitative RT-PCR); conditions: 100 μM CDCA and 2.5 μM GW4046, 72 hours, PHH in microfluidic device or polystyrene plate
Description: Subsequently, a change in bile acid signaling upon drug exposure was examined.
Subsequently, the gene expression levels of BSEP and CYP7A1 were measured by quantitative RT-PCR.

[8] = system: CYP3A4; assay: Measurement of CYP activity using CYP substrates in PHH (MDZ to 1OH-MDZ); type: in vitro ADME, human
Description: The LC-MS/MS analysis was carried out to measure the activity of CYP. Prior to a CYP substrate treatment, PHH was cultured in DMEM containing 10 mM HEPES for 30 minutes. Subsequently, the PHH was cultured in a culture medium containing 5 μM MDZ (the metabolite thereof is 1OH-MDZ), 50 μM MPHT (the metabolite thereof is 4OH-MPHT), 5 μM DIC (the metabolite thereof is 4OH-DIC), 10 μM BUF (the metabolite thereof is 1OH-BUF), or 50 μM PHE (the metabolite thereof is APAP). The supernatant was recovered 1, 2, and 4 hours after the treatment with the substrate. At the time of recovering the supernatant, an equal amount of a culture medium containing the substrate was added.
The recovered supernatant was mixed with acetonitrile (FUJIFILM Wako Pure Chemical Corporation) containing an equal volume of 5 μM propranolol (internal standard). The specimen was filtered through a Cosmonice Filter W (Nacalai Tesque, Inc.) having a pore size of 0.45 μm, the supernatant was subsequently analyzed by LC-MS/MS, and the concentration of the metabolite was measured based on the standard curve. The LC-MS/MS analysis was carried out using LCMS-8040 (Shimadzu Corporation).
Subsequently, the drug metabolic activities of the PHH cultured in the PDMS device and the PS plate were compared. First, PHH was treated with each of MDZ, DIC, PHE, BUF, and MPHT, which are substrates of CYP3A4, CYP2C9, CYP1A2, CYP2D6, and CYP2C19. Subsequently, after 1, 2, and 4 hours, the amounts of the metabolites (OH-MDZ, 4OH-DIC, APAP, 1OH-BUF, and 4OH-MPHT) generated in the culture medium were measured by LC-MS/MS.

[9] = system: CYP2B6; assay: CYP induction test (quantitative RT-PCR) in PHH; conditions: 500 μM phenobarbital, 48 hours, versus DMSO
Description: (§3) PHH was treated with 50 μM omeprazole, 500 μM phenobarbital, or 20 μM rifampicin (all of which are from FUJIFILM Wako Pure Chemical Corporation) for 48 hours. Each of these drugs is known to induce CYP1A2, 2B6, and 3A4. In order to measure the inducibility of CYP1A2, 2B6, and 3A4, the expression level of CYP was measured by quantitative RT-PCR. The expression level of the target gene was standardized with the expression level of GAPDH. The inducibility was calculated as a change in expression level in terms of folds in cells treated with DMSO.
(§4) PHH was seeded in each of a microfluidic device and a polystyrene plate and cultured for 24 hours. Subsequently, the cultured PHH was treated with 50 μM omeprazole, 500 μM phenobarbital, or […] rifampicin for 48 hours. […] Subsequently, the expression level of each CYP gene was measured by quantitative RT-PCR. Cells treated with DMSO (final concentration: 0.1%) were used as a control.

[10] = system: CYP1A2; assay: CYP induction test (quantitative RT-PCR) in PHH; type: cell-based, human; conditions: 50 μM omeprazole, 48 hours, versus DMSO
Description: as §3, §4

[11] = system: GFP-expressing HuCCT1 cells; assay: Formation of tubular bile duct-like structure in microfluidic device; type: cell-based, human; conditions: 10 ng/mL in culture medium, 4 days, lower layer flow path
Description: GFP-expressing HuCCT1 cells were seeded in the lower layer flow path of the microfluidic device in the presence or absence of 10 ng/mL of DLL1 or DLL4, and after 4 days, a cross-sectional image of the microfluidic device was acquired.

[12] = 100 ng/mL TGF-β1, 48 hours, microfluidic device or polystyrene plate, versus PBS
[13] = microfluidic device versus polystyrene plate

T1 sequence (Q92887 whole entry): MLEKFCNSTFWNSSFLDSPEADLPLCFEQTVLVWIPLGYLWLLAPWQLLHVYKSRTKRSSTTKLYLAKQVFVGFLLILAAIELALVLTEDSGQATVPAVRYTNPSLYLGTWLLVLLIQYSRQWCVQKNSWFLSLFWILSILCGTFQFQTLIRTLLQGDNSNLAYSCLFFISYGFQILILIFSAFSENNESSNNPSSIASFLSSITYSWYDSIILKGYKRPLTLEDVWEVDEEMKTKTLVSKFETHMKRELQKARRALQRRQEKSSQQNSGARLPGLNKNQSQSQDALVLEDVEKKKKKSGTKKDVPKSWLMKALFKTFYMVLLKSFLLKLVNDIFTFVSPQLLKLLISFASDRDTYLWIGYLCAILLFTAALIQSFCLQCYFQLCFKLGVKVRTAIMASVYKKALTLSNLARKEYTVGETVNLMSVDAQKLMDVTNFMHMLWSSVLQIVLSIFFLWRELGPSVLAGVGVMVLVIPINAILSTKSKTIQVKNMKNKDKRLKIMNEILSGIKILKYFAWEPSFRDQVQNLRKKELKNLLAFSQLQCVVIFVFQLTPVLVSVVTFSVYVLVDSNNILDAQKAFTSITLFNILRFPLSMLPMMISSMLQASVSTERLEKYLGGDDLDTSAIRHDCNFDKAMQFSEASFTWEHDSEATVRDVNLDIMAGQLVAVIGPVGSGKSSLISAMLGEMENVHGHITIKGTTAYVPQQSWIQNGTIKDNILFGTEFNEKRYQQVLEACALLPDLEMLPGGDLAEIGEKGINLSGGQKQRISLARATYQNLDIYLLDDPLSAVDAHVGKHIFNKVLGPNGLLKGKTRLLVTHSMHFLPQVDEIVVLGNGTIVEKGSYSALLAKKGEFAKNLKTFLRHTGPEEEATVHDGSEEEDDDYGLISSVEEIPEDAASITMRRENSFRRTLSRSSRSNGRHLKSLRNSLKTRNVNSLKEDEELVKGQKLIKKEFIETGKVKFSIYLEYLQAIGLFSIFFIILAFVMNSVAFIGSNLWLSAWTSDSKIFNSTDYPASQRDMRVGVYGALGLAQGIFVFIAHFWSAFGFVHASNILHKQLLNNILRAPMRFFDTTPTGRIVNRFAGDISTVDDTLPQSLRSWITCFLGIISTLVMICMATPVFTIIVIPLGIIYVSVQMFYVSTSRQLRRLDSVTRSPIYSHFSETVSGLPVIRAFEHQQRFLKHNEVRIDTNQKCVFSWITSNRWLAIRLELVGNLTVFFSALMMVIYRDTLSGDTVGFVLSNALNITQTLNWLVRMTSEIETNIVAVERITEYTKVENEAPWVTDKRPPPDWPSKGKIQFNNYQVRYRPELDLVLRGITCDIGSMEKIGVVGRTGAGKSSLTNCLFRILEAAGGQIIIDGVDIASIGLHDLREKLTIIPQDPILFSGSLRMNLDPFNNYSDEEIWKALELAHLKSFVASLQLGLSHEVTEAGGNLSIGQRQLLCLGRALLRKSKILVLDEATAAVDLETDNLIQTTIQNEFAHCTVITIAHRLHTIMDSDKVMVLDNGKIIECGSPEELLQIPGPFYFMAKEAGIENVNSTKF

With `O=C(O)Cc1ccccc1Nc1c(Cl)cccc1Cl` [Diclofenac, diclofenac] as the compound, how does the Drug absorption rate [1] read?
Its Drug absorption rate is 1.043.

Which “amount of the CDF transported to the lower layer flow path” value [2] does the source give for “5(6)-carboxy-2′,7′-dichlorofluorescein [CDF]” here?
Its value is “increases”.

Which “ACTA2 gene expression level” value [3, 12] does the source give for “TGF-β1: recombinant protein, one of the causative factors of hepatic fibrosis” here?
The value was “increased”.

And the “COL1A1 gene expression level” value [3, 12]?
Its value is “increased”.

And the “TIMP1 gene expression level” value [3, 12]?
The value was “increased”.

What about the “TGFBR2 gene expression level” value ([3]; TGF-β1 treatment, PHH in microfluidic device and polystyrene plate) of the same compound?
The value was “not changed”.

What about the “adsorption of TGF-β1 to the microfluidic device” value [4] of the same compound?
The value was “has not allowed the adsorption”.

What about the “adsorption of TGF-β1 to the polystyrene plate” value [4] of the same compound?
Its value is “allowed the adsorption”.

For `CCOc1ccc(NC(C)=O)cc1` [Phenacetin, phenacetin], which Drug absorption rate [1] is on record?
The Drug absorption rate was 0.9569.

Which “formation of 2OH-ATV” value ([5]; PHH, 1 μM ATV, 1, 2 and 4 hours) does the source give for `CC(C)c1c(C(=O)Nc2ccccc2O)c(-c2ccccc2)c(-c2ccc(F)cc2)n1CCC(O)CC(O)CC(=O)O` (centres unmarked) [2OH-ATV, 2-hydroxyatorvastatin] here?
The value was “observed in a time-dependent manner”.

What about the “formation rate of 2OH-ATV in PHH cultured in the microfluidic device” value [5, 13] of the same compound?
The value was “partially reduced”.

With `C[C@H](CCC(=O)O)[C@H]1CC[C@H]2[C@@H]3[C@H](O)C[C@@H]4C[C@H](O)CC[C@]4(C)[C@H]3CC[C@]12C` [CDCA, chenodeoxycholic acid] as the compound, how does the “BSEP gene expression level” value [6] read?
The value was “increased”.

What about the “CYP7A1 gene expression level” value [6] of the same compound?
The value was “decreased”.

And the “NTCP gene expression level” value [6]?
The value was “increased”.

What about the “CYP7A1 gene expression level” value [7] of the same compound?
The value was “decreased only in the microfluidic device”.

Which results are given for `Cc1ncc2n1-c1ccc(Cl)cc1C(c1ccccc1F)=NC2` [Midazolam, midazolam]?
amount of the metabolite, microfluidic device versus polystyrene plate ([8]; PHH, 5 μM MDZ): smaller; clearance (rate of drug metabolite formation divided by concentration of the drug in the culture medium) [8, 13]: no difference; concentration during the observation period [1]: constant; concentration as % of initial concentration [1]: 9.5%; Drug absorption rate [1]: 10.41; absorption in the microfluidic device [1]: absorbed in the microfluidic device

For `CCCC(C(=O)OCCN(CC)CC)(c1ccccc1)c1ccccc1` [SKF-525A], which “formation of 2OH-ATV on treatment with pan-CYP inhibitor” value ([5]; PHH, 100 μM SKF-525A, 1 μM ATV) is on record?
Its value is “significantly reduced”.

Which Drug absorption rate [1] does the source give for `CC[C@@]1(c2ccccc2)NC(=O)N(C)C1=O` [S-mephenytoin] here?
Its Drug absorption rate is 0.9897.

With `CCC1(c2ccccc2)C(=O)NC(=O)NC1=O` [phenobarbital] as the compound, how does the CYP2B6 expression level [9] read?
Its CYP2B6 expression level is “induced in both the microfluidic device and the polystyrene plate”.

With `COc1ccc2[nH]c([S+]([O-])Cc3ncc(C)c(OC)c3C)nc2c1` (centres unmarked) [omeprazole] as the compound, how does the CYP1A2 expression level [10] read?
The CYP1A2 expression level was “induced in both the microfluidic device and the polystyrene plate”.

Which results are given for `OCc1ncc2n1-c1ccc(Cl)cc1C(c1ccccc1F)=NC2` [1-hydroxymidazolam]?
formation rate of metabolite, microfluidic device versus polystyrene plate ([8]; PHH, 5 μM MDZ): similar; concentration during the observation period [1]: constant; Drug absorption rate [1]: 1.714; absorption in the microfluidic device [1]: also absorbed in the PDMS device

With `CC(C)c1onc(-c2c(Cl)cccc2Cl)c1COc1ccc(/C=C/c2cccc(C(=O)O)c2)c(Cl)c1` [GW4046] as the compound, how does the “BSEP gene expression level” value [7] read?
Its value is “increased in both the PHH cultured in the microfluidic device and the PHH cultured on the polystyrene plate”.

For `CCc1cccc2cc(C(O)CNC(C)(C)C)oc12` (centres unmarked) [Bufuralol, bufuralol], which “concentration during the observation period” value [1] is on record?
The value was “constant”.

And the “concentration as % of initial concentration” value [1]?
The value was 30%.

And the Drug absorption rate [1]?
Its Drug absorption rate is 3.327.

What about the “absorption in the microfluidic device” value [1] of the same compound?
The value was “absorbed in the microfluidic device”.

Which “formation of the tubular bile duct-like structure” value [11] does the source give for “DLL4: recombinant human Delta Like Canonical Notch Ligand 4, lumenization factor” here?
The value was “accelerates the formation of the tubular bile duct-like structure”.
